In publication PMC8550792, “Evolution of kinase polypharmacology across HSP90 drug discovery” (Cell Chemical Biology, 2021):
Like-named read-outs stand apart in the source and are kept apart here.

Tests used:
Test in all cases: biochemical
Format in all cases: biochemical
382 unique human kinases [1] = target: T1, 382 unique human kinases (Homo sapiens, UniProt Q02779); conditions: kinase MLK2/MAP3K10, compound 10 uM; for remaining activity at 10 µM: read-out: % Enzyme Activity (relative to DMSO controls)
T1 construct: purchased Reaction Biology (HotSpot contract assay)
T1 sequence (Q02779 whole entry): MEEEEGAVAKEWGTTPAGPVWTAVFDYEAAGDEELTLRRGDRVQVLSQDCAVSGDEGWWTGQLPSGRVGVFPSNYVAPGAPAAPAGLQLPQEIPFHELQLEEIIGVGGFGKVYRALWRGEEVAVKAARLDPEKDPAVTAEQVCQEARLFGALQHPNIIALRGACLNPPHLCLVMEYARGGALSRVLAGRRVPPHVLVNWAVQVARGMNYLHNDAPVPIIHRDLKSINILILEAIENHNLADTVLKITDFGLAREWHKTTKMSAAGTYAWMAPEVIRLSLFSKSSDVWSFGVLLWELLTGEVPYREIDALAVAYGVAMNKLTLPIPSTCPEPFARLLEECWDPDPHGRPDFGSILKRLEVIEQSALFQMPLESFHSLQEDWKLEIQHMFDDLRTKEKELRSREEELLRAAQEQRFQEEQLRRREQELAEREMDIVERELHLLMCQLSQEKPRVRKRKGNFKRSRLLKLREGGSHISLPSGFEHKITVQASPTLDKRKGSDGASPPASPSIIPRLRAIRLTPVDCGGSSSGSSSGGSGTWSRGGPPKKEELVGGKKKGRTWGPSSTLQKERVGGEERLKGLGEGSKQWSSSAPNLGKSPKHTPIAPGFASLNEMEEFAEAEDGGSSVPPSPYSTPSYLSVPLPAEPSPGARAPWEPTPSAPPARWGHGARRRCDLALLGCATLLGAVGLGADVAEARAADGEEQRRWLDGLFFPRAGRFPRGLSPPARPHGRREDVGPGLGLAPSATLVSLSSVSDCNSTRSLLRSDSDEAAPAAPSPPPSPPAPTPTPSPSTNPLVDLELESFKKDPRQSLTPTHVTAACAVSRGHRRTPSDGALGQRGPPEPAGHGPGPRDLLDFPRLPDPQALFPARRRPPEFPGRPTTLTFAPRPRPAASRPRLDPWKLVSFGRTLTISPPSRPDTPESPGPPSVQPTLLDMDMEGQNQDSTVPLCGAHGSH

382 unique human kinases [2] = target: T2, 382 unique human kinases (Homo sapiens, UniProt Q13188); conditions: kinase MST2/STK3, compound 10 uM; for remaining activity at 10 µM: read-out: % Enzyme Activity (relative to DMSO controls)
T2 construct: purchased Reaction Biology (HotSpot contract assay)
T2 sequence (Q13188 1-491): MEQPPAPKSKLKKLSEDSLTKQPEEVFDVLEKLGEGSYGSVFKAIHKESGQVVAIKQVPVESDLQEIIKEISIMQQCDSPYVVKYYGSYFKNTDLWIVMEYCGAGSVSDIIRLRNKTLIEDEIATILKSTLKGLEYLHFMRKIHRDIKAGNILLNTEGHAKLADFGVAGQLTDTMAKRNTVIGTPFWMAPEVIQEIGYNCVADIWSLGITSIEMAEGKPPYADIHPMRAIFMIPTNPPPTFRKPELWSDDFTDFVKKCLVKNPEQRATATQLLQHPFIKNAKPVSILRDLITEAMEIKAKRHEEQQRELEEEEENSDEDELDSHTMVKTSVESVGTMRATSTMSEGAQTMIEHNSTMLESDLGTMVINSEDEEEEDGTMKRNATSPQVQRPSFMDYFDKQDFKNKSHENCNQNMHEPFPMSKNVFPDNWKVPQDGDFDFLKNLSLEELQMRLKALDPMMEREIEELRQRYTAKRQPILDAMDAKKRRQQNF

382 unique human kinases [3] = target: T3, 382 unique human kinases (Homo sapiens, UniProt O75460); conditions: kinase ERN1/IRE1, compound 10 uM; for remaining activity at 10 µM: read-out: % Enzyme Activity (relative to DMSO controls)
T3 construct: purchased Reaction Biology (HotSpot contract assay)

382 unique human kinases [4] = target: T4, 382 unique human kinases (Homo sapiens, UniProt Q02763); conditions: for remaining activity at 10 µM: read-out: % Enzyme Activity (relative to DMSO controls)
T4 construct: purchased Reaction Biology (HotSpot contract assay)

382 unique human kinases [5] = target: T5, 382 unique human kinases (Homo sapiens, UniProt P04049); conditions: RAF1, compound at 10 uM, duplicate values; for remaining activity at 10 µM: read-out: % Enzyme Activity (relative to DMSO controls)
T5 construct: purchased Reaction Biology (HotSpot contract assay)
T5 sequence (P04049 whole entry): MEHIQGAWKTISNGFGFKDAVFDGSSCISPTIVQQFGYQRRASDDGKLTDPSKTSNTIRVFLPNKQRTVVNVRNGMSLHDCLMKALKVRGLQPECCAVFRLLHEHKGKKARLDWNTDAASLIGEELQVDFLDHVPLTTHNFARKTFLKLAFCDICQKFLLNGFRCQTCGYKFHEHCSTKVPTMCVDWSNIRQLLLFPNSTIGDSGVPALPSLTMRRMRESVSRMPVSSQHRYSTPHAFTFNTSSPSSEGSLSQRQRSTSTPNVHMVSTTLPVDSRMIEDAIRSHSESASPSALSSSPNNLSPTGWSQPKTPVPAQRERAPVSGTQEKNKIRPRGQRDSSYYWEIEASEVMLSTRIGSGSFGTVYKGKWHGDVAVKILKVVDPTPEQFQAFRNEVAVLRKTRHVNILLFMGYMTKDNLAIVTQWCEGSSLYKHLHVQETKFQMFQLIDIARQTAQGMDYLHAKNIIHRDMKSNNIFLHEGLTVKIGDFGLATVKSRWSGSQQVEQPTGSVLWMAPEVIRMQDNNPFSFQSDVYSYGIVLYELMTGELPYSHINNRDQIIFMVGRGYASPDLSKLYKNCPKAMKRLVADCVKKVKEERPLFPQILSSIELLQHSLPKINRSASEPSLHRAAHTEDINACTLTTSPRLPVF

382 unique human kinases [6] = target: T6, 382 unique human kinases (Homo sapiens, UniProt Q7KZI7); conditions: MARK2/PAR-1Ba, 10 uM; for remaining activity at 10 µM: read-out: % Enzyme Activity (relative to DMSO controls)
T6 construct: purchased Reaction Biology (HotSpot contract assay)
T6 sequence (Q7KZI7 whole entry): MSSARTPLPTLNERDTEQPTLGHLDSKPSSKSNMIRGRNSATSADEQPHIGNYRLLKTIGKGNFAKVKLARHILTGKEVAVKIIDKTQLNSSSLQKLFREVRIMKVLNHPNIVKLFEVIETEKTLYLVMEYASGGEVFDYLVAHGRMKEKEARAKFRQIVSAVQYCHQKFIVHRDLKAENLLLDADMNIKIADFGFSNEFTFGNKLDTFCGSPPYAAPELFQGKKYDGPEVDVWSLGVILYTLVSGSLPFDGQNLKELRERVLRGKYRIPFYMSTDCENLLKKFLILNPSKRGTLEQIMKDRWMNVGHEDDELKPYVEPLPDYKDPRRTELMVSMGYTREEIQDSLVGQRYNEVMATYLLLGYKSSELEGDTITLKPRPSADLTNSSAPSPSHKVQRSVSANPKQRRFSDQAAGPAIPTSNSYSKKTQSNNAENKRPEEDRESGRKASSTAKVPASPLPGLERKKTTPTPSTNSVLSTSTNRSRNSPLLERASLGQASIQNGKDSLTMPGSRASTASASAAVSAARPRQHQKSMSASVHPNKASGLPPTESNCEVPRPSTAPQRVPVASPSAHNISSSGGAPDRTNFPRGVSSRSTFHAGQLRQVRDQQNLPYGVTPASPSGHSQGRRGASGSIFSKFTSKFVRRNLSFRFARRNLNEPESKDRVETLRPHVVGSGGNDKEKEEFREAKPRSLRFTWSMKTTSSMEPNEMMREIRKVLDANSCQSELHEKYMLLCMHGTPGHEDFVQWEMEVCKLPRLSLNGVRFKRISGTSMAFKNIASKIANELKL

382 unique human kinases [7] = target: T7, 382 unique human kinases (Homo sapiens, UniProt P35916); conditions: FLT4/VEGFR3, [ATP] 5 µM, compound 10 uM; for remaining activity at 10 µM: read-out: % Enzyme Activity (relative to DMSO controls)
T7 construct: purchased Reaction Biology (HotSpot contract assay)
T7 sequence (P35916 25-1363): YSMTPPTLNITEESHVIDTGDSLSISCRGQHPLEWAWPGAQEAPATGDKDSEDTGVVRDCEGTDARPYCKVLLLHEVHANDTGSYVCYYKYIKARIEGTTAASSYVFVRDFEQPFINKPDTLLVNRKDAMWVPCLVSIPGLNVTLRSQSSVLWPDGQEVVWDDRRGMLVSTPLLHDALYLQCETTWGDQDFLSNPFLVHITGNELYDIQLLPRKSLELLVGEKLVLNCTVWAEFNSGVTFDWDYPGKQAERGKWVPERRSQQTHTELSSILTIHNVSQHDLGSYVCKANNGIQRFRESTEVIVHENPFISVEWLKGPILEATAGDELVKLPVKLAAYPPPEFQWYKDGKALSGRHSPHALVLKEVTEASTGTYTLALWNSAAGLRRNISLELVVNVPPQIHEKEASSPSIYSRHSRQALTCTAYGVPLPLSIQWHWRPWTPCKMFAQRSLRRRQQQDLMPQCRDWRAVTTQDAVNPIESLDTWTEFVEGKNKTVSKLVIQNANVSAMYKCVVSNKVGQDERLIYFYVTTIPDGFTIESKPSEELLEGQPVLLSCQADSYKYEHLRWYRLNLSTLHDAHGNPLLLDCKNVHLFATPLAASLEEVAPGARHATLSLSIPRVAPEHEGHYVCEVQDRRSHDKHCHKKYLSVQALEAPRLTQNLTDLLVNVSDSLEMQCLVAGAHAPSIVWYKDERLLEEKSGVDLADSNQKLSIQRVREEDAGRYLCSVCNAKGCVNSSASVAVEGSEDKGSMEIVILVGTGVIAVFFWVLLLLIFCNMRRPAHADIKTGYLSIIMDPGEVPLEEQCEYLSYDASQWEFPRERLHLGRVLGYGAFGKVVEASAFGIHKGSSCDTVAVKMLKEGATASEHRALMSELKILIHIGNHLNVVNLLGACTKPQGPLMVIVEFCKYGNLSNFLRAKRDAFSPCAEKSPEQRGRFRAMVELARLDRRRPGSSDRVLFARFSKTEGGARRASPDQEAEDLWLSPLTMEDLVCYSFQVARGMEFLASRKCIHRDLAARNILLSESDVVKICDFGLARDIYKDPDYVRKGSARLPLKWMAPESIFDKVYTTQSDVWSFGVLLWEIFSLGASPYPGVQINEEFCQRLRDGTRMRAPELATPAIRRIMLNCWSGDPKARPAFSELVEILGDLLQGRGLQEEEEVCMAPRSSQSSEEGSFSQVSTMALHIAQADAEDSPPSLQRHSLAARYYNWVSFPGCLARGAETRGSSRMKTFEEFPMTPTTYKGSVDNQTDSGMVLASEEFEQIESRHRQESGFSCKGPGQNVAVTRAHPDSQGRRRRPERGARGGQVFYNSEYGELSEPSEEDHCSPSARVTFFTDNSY

382 unique human kinases [8] = target: T8, 382 unique human kinases (Homo sapiens, UniProt P08581, Y1230A); conditions: c-MET (Y1230A), 10 uM; for remaining activity at 10 µM: read-out: % Enzyme Activity (relative to DMSO controls)
T8 construct: purchased Reaction Biology (HotSpot contract assay)

382 unique human kinases [9] = target: T9, 382 unique human kinases (Homo sapiens, UniProt P36888); conditions: FLT3, [ATP] 50 µM, compound 10 uM; for remaining activity at 10 µM: read-out: % Enzyme Activity (relative to DMSO controls)
T9 construct: purchased Reaction Biology (HotSpot contract assay)
T9 sequence (P36888 27-993): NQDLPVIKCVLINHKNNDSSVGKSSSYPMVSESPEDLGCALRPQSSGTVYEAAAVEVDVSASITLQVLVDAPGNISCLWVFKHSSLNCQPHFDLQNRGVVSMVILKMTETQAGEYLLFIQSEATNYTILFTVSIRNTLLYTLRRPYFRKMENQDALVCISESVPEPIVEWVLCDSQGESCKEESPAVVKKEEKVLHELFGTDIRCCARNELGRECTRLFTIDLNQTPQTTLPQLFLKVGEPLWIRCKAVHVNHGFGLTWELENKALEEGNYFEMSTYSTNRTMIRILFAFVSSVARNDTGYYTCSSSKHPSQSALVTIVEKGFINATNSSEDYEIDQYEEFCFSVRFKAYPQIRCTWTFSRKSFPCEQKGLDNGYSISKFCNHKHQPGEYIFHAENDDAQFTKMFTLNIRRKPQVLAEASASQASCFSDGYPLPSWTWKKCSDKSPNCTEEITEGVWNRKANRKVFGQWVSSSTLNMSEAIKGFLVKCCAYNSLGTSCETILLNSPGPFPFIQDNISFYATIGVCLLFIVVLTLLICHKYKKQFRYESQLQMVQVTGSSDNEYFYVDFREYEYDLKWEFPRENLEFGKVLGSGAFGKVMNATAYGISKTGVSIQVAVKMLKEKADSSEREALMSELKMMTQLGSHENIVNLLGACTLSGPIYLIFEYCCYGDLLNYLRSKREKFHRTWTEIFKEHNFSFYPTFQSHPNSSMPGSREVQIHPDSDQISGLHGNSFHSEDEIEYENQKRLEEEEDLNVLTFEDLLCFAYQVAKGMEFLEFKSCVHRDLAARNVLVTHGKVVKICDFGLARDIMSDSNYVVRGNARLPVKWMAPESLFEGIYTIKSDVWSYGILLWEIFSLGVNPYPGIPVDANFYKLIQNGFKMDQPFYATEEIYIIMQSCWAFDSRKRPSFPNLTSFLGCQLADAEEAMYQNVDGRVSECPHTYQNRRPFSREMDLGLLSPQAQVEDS

382 unique human kinases [10] = target: T10, 382 unique human kinases (Homo sapiens, UniProt P11309); conditions: PIM1, [ATP] 100 µM, compound 10 uM; for remaining activity at 10 µM: read-out: % Enzyme Activity (relative to DMSO controls)
T10 construct: purchased Reaction Biology (HotSpot contract assay)
T10 sequence (P11309 whole entry): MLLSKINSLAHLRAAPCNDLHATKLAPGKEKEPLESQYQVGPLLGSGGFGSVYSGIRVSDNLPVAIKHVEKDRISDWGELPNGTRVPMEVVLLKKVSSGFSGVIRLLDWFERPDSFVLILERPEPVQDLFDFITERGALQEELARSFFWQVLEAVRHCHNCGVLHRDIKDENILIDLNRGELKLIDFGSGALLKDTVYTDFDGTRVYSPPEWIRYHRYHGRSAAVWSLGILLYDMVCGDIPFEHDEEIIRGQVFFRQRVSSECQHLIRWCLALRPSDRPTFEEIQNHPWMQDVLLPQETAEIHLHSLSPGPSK

382 unique human kinases [11] = target: T11, 382 unique human kinases (Homo sapiens, UniProt P28482); conditions: ERK2/MAPK1, 10 uM; for remaining activity at 10 µM: read-out: % Enzyme Activity (relative to DMSO controls)
T11 construct: purchased Reaction Biology (HotSpot contract assay)
T11 sequence (P28482 whole entry): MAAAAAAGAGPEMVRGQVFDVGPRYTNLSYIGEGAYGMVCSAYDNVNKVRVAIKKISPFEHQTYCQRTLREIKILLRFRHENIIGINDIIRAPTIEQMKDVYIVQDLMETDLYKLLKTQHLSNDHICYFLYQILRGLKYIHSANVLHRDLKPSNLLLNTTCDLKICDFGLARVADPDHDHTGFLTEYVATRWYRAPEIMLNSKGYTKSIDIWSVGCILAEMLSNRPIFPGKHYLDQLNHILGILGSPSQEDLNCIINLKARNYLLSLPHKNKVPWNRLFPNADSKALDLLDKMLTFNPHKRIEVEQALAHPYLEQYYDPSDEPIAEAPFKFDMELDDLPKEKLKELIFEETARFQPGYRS

382 unique human kinases [12] = target: T12, 382 unique human kinases (Homo sapiens, UniProt P00533, DEL752-759); conditions: EGFR (d752-759), 10 uM; for remaining activity at 10 µM: read-out: % Enzyme Activity (relative to DMSO controls)
T12 construct: purchased Reaction Biology (HotSpot contract assay)

382 unique human kinases [13] = target: T13, 382 unique human kinases (Homo sapiens, UniProt P07949, V778I); conditions: RET (V778I), [ATP] 10 µM, compound 10 uM; for remaining activity at 10 µM: read-out: % Enzyme Activity (relative to DMSO controls)
T13 construct: purchased Reaction Biology (HotSpot contract assay)

[14] = TIE2/TEK, compound at 10 uM, duplicate values

| SMILES | remaining activity at 10 µM (382 unique human kinases [1]) [%] | remaining activity at 10 µM (382 unique human kinases [2]) [%] | remaining activity at 10 µM (382 unique human kinases [3]) [%] | remaining activity at 10 µM (382 unique human kinases [4]; TIE2 (A1124V), 10 uM) [%] | remaining activity at 10 µM (382 unique human kinases [4]; [14]) [%] | remaining activity at 10 µM (382 unique human kinases [5]) [%] | remaining activity at 10 µM (382 unique human kinases [6]) [%] | remaining activity at 10 µM (382 unique human kinases [7]) [%] | remaining activity at 10 µM (382 unique human kinases [8]) [%] | remaining activity at 10 µM (382 unique human kinases [9]) [%] | remaining activity at 10 µM (382 unique human kinases [10]) [%] | remaining activity at 10 µM (382 unique human kinases [11]) [%] | remaining activity at 10 µM (382 unique human kinases [12]) [%] | remaining activity at 10 µM (382 unique human kinases [13]) [%] | other results |
| --- | --- | --- | --- | --- | --- | --- | --- | --- | --- | --- | --- | --- | --- | --- | --- |
| CC(C)c1cc(-c2n[nH]c(=O)n2-c2ccc3c(ccn3C)c2)c(O)cc1O [Ganetespib (STA9090)] | 98.6 | 78.8 | 103 | 71 | 101 | 106 | 75.7 |  |  |  |  |  |  |  |  |
| CC(C)c1cc(-c2n[nH]c(=O)n2-c2ccc3c(ccn3C)c2)c(O)cc1O [Ganetespib] |  |  |  |  |  |  |  | 47.4 | 117 | 30.4 | 15.9 | 106 | 103 | 56.4 |  |
| CCNC(=O)c1noc(-c2cc(C(C)C)c(O)cc2O)c1-c1ccc(CN2CCOCC2)cc1 [Luminespib] |  |  |  |  |  |  |  | 96 | 101 | 80.1 | 97.2 | 94.6 | 99.4 | 111 | % Enzyme Activity (relative to DMSO controls) (382 unique human kinases [7]): 95.96%; % Enzyme Activity (relative to DMSO controls) (382 unique human kinases [8]): 98.90%; % Enzyme Activity (relative to DMSO controls) (382 unique human kinases [9]): 80.03%; % Enzyme Activity (relative to DMSO controls) (382 unique human kinases [10]): 94.76%; % Enzyme Activity (relative to DMSO controls) (382 unique human kinases [11]): 93.52%; % Enzyme Activity (relative to DMSO controls) (382 unique human kinases [12]): 98.01%; % Enzyme Activity (relative to DMSO controls) (382 unique human kinases [13]): 105.36% |
| CCNC(=O)c1noc(-c2cc(C(C)C)c(O)cc2O)c1-c1ccc(CN2CCOCC2)cc1 [Luminespib (AUY-922)] | 91.1 | 93.3 | 82.5 | 96.5 | 108 | 105 | 104 |  |  |  |  |  |  |  | % Enzyme Activity (relative to DMSO controls) (382 unique human kinases [1]): 89.74%; % Enzyme Activity (relative to DMSO controls) (382 unique human kinases [2]): 89.89%; % Enzyme Activity (relative to DMSO controls) (382 unique human kinases [3]): 82.42%; % Enzyme Activity (relative to DMSO controls) (382 unique human kinases [4]; TIE2 (A1124V), 10 uM): 95.16%; % Enzyme Activity (relative to DMSO controls) (382 unique human kinases [4]; [14]): 106.94%; % Enzyme Activity (relative to DMSO controls) (382 unique human kinases [5]): 103.94%; % Enzyme Activity (relative to DMSO controls) (382 unique human kinases [6]): 102.26% |
